Test results reported in patent US10202391B2, “Chemical compounds” (AstraZeneca AB, priority 2015, dated 2019).

Legend:
Format in all cases: cell-based, human
H2122 cell line = assay: Combination cell growth inhibition (Sytox Green, Loewe synergy), H2122; conditions: Example 18 with selumetinib, 6x6 dosing matrix 0-10 μmol/L, 3 days, Loewe model, average of three or more experiments
From the text: (§1) A549 is a human non small cell lung cancer line carrying an oncogenic mutation in the KRAS gene (G12S). H2122 is a human non small cell lung cancer line carrying an oncogenic mutation in the KRAS gene (G12C). H2009 is a human non small cell lung cancer line carrying an oncogenic mutation in the KRAS gene (G12A). Calu6 is a human non small cell lung cancer line carrying mutation in the KRAS ([…]) gene. All cell lines were obtained from the American Type Culture Collection.
(§2) All cell line were maintained at 37° C. and 5% CO2 in a humidified atmosphere and grown in RPMI-1640 growth media supplemented with 10% FBS and 2 mmol/L glutamine. […]
(§3) Cells were seeded in 384-well black, clear bottomed plates (Greiner Bio-One, Stonehouse, UK), cultured for 18-24 hours and treated with increasing concentrations of Example 18 and selumetinib (0-10 μmol/L) in a 6×6 dosing matrix. […] After 3 days of treatment, live cell number was determined using a Sytox Green endpoint as described previously (“Davies B R, Greenwood H, Dudley P, et al: Preclinical pharmacology of AZD5363, an inhibitor of AKT: Pharmacodynamics, antitumor activity, and correlation of monotherapy activity with genetic background. Mol Cancer Ther 11(4):873-87, 2012”). […] Cells were then permeabilised by the overnight addition of saponin (0.03% final concentration, diluted in TBS-EDTA buffer) and a total cell count measured. […]

H2009 cell line = assay: Combination cell growth inhibition (Sytox Green, Loewe synergy), H2009; conditions: Example 18 with selumetinib, 6x6 dosing matrix 0-10 μmol/L, 3 days, Loewe model, average of three or more experiments
From the text: as §1, §2, §3

[1] = system: panel of cancer cell lines with KRAS mutations; assay: Cell growth inhibition, monotherapy, panel of KRAS mutant lines; conditions: A549, H2122, H2009, Calu6; 3 days of treatment
From the text: as §1, §2, §3

A549 cell line = assay: Combination cell growth inhibition (Sytox Green, Loewe synergy), A549; conditions: Example 18 with selumetinib, 6x6 dosing matrix 0-10 μmol/L, 3 days, Loewe model, average of three or more experiments
From the text: as §1, §2, §3

`COC[C@H]1Cn2cc(-c3nc(Nc4ccnn4C)ncc3C)nc2C(=O)N1Cc1ccc(F)c(F)c1` [Example 18, (R)-7-(3,4-Difluorobenzyl)-6-(methoxymethyl)-2-(5-methyl-2-((1-methyl-1H-pyrazol-5-yl)amino)pyrimidin-4-yl)-6,7-dihydroimidazo[1,2-a]pyrazin-8(5H)-one] was tested, and the Synergy score (H2122 cell line) was 14.3, the Synergy score (H2009 cell line) was 67.5 and the “cell growth inhibition as monotherapy” value [1] was “can inhibit the growth of a panel of cancer cell lines with KRAS mutations as a monotherapy”. It also gave a Synergy score (A549 cell line) of 25.
